According to patent US20100278733A1, “COMPOSITION FOR DIAGNOSIS OF AMYLOID-RELATED DISEASE” (priority 2007, published 2010):
Each block holds one compound with its values, some of them ahead of it.

Key:
[1] = In-vivo radioactivity distribution experiment in normal mice (Reference Example 2); conditions: Reference Example 2 numbering; for Radioactivity concentration in the brain of mice: intravenous
Method: Labeled compounds, [^11C]Compounds 23 and 7, were diluted with physiological saline containing 10% ethanol. 100 μL of each of the labeled compounds was intravenously infused to five 5-week-old male ddY mice per group, the animals were decapitated at 2, 10, 30, or 60 min, blood was collected, and then weights and radioactivities thereof were measured.

Aβ(1-42) aggregate = target: T1, Aβ(1-42) aggregate (Homo sapiens, UniProt P05067); assay: Binding inhibition experiment using Aβ(1-42) aggregate, Ki values (Example 2); conditions: compound numbers of Example 2; for Ki: radioactive ligand [^125I]CL-NMe2, mean ± standard error of 3 experiments (compound 4: 6 experiments), read-out: Ki values calculated by inhibition experiment
T1 construct: Amyloid β protein (Human, 1-42) [TFA form] was purchased from Peptide Institute, Inc; purchased Peptide Institute, Inc
T1 sequence (P05067 672-713 limits assumed): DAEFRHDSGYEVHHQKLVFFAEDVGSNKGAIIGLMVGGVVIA
Method: As a radioactive iodine-125 (^125I), Iodine-125 (3.7 GBq/mL) manufactured by MP Biomedicals, Inc. was used. Reverse phase HPLC was performed at a flow rate of 1.0 mL/min using a Cosmosil 5C18-AR-II column (4.6×150 mm) manufactured by Nacalai Tesque Inc. and ultrapure water:acetonitrile=3:7 as an elution solvent. ^1HNMR was measured using Varian Gemini 300 and tetramethylsilane as an internal standard substance. Mass spectrometry was performed using JEOL IMS-DX300. Preparative TLC was performed using 12 PLC plates 20×20-cm-Silica gel 60 F254, 2 mm manufactured by MERCK. Amyloid β protein (Human, 1-42) was purchased from Peptide Institute, Inc., and special grade reagents were used as other reagents.
Aβ(1-42) was dissolved in 10 mM phosphate buffer containing 1 mM EDTA (pH 7.4) at a concentration of 0.25 mg/mL, and the mixture was incubated at 37° C. for 42 h to prepare an Aβ(1-42) aggregate.
[…] of 10% EtOH solution, […] of a solution of [^125I]4-diethylamino-4′-iodochalcone ([^125I]CL-NMe2) in 10% ethanol, and […] of a sample solution at various concentrations (0 to 20 mM) were mixed, […] of an Aβ(1-42) aggregate solution was finally added, and the mixture was allowed to stand at room temperature for 3 h. Aβ(1-42) aggregate-bound compounds and nonbound compounds were separated with a Brandel M-24R cell harvester using a Whatman GF/B filter. Radioactivities remaining on the filter after filtration were measured with a γ-counter, and inhibition curves were created using Graph Pad Prism 4.0 to calculate inhibition constants (Ki values).

[2] = In-vivo radioactivity distribution experiment using normal mice (Example 2); conditions: Example 2 numbering; for In-vivo radioactivity distribution: blood / In-vivo radioactivity distribution: brain / In-vivo radioactivity distribution: heart / In-vivo radioactivity distribution: intestine / In-vivo radioactivity distribution: kidney / In-vivo radioactivity distribution: liver / In-vivo radioactivity distribution: lung / In-vivo radioactivity distribution: pancreas / In-vivo radioactivity distribution: spleen / In-vivo radioactivity distribution: stomach: normal mice, intravenous
Method: Radioactive iodine labeling compounds were diluted with physiological saline containing 10% EtOH. To each of four or five 5-week-old male ddY mice (20 to 25 g) per group, […] of a labeled compound, [^125I]Compound 7, 10, 13, or 14 (0.2 to 0.4 mCi), was administered from the caudal vein. Animals were decapitated at 2, 10, 30, or 60 min, blood was collected, the major organs were isolated, and then weights and radioactivities thereof were measured.

Compound: CN(C)c1ccc(/C=C/C(=O)c2ccc(OCCOCCOCCF)cc2)cc1 [Compound 7 in Reference Example 2, (E)-1-(4-(2-(2-(2-fluoroethoxy)ethoxy)ethoxy)phenyl)-3-(4-(dimethylamino)phenyl)prop-2-en-1-one]
ratio of brain radioactivity at 60 min to that at 2 min after administration [1]: 8.1%
ratio of the radioactivity remaining in the brain at 30 min after administration to that at 2 min after administration [1]: 14.8%
Radioactivity concentration in the brain of mice ([1]; 2 min after administration, listed as [^11C] 7): 4.31 ± 0.33 % ID/g
Radioactivity concentration in the brain of mice ([1]; 2 min after administration, listed as [^11C]Compound 7): 4.31 % ID/g
Radioactivity concentration in the brain of mice ([1]; 10 min after administration): 1.38 ± 0.16 % ID/g
Radioactivity concentration in the brain of mice ([1]; 30 min after administration): 0.64 ± 0.07 % ID/g
Radioactivity concentration in the brain of mice ([1]; 60 min after administration, listed as [^11C] 7): 0.35 ± 0.03 % ID/g
Radioactivity concentration in the brain of mice ([1]; 60 min after administration, listed as [^11C]Compound 7): 0.35 % ID/g

Compound: CN(C)c1ccc(C(=O)/C=C/c2ccc(I)cc2)cc1 [Compound 10 in Example 2, 4-iodo-4′-dimethylaminochalcone]
Ki (Aβ(1-42) aggregate): 13.3 ± 1.9 nM
In-vivo radioactivity distribution: blood ([2]; 2 min): 1.87 (0.23) percent of the dose/g
In-vivo radioactivity distribution: brain ([2]; 2 min): 2.77 (0.37) percent of the dose/g
In-vivo radioactivity distribution: heart ([2]; 2 min): 5.23 (0.61) percent of the dose/g
In-vivo radioactivity distribution: intestine ([2]; 2 min): 2.69 (0.43) percent of the dose/g
In-vivo radioactivity distribution: kidney ([2]; 2 min): 6.30 (0.85) percent of the dose/g
In-vivo radioactivity distribution: liver ([2]; 2 min): 13.99 (1.57) percent of the dose/g
In-vivo radioactivity distribution: lung ([2]; 2 min): 6.02 (0.60) percent of the dose/g
In-vivo radioactivity distribution: pancreas ([2]; 2 min): 3.85 (1.97) percent of the dose/g
In-vivo radioactivity distribution: spleen ([2]; 2 min): 2.35 (0.35) percent of the dose/g
In-vivo radioactivity distribution: stomach ([2]; 2 min): 0.76 (0.13) percent of the dose
In-vivo radioactivity distribution: blood ([2]; 10 min): 1.89 (0.61) percent of the dose/g
In-vivo radioactivity distribution: brain ([2]; 10 min): 2.04 (0.26) percent of the dose/g
In-vivo radioactivity distribution: heart ([2]; 10 min): 2.05 (0.37) percent of the dose/g
In-vivo radioactivity distribution: intestine ([2]; 10 min): 9.27 (1.36) percent of the dose/g
In-vivo radioactivity distribution: kidney ([2]; 10 min): 4.51 (1.29) percent of the dose/g
In-vivo radioactivity distribution: liver ([2]; 10 min): 10.29 (2.06) percent of the dose/g
In-vivo radioactivity distribution: lung ([2]; 10 min): 3.92 (0.76) percent of the dose/g
In-vivo radioactivity distribution: pancreas ([2]; 10 min): 2.12 (0.31) percent of the dose/g
In-vivo radioactivity distribution: spleen ([2]; 10 min): 1.52 (0.19) percent of the dose/g
In-vivo radioactivity distribution: stomach ([2]; 10 min): 0.89 (0.28) percent of the dose
In-vivo radioactivity distribution: blood ([2]; 30 min): 1.51 (0.40) percent of the dose/g
In-vivo radioactivity distribution: brain ([2]; 30 min): 0.63 (0.06) percent of the dose/g
In-vivo radioactivity distribution: heart ([2]; 30 min): 1.10 (0.16) percent of the dose/g
In-vivo radioactivity distribution: intestine ([2]; 30 min): 12.50 (2.49) percent of the dose/g
In-vivo radioactivity distribution: kidney ([2]; 30 min): 4.10 (1.15) percent of the dose/g
In-vivo radioactivity distribution: liver ([2]; 30 min): 6.69 (1.21) percent of the dose/g
In-vivo radioactivity distribution: lung ([2]; 30 min): 1.95 (0.25) percent of the dose/g
In-vivo radioactivity distribution: pancreas ([2]; 30 min): 0.85 (0.10) percent of the dose/g
In-vivo radioactivity distribution: spleen ([2]; 30 min): 0.82 (0.15) percent of the dose/g
In-vivo radioactivity distribution: stomach ([2]; 30 min): 0.73 (0.23) percent of the dose
In-vivo radioactivity distribution: blood ([2]; 60 min): 1.38 (0.54) percent of the dose/g
In-vivo radioactivity distribution: brain ([2]; 60 min): 0.42 (0.11) percent of the dose/g
In-vivo radioactivity distribution: heart ([2]; 60 min): 0.84 (0.26) percent of the dose/g
In-vivo radioactivity distribution: intestine ([2]; 60 min): 20.09 (5.48) percent of the dose/g
In-vivo radioactivity distribution: kidney ([2]; 60 min): 4.59 (1.57) percent of the dose/g
In-vivo radioactivity distribution: liver ([2]; 60 min): 7.06 (2.45) percent of the dose/g
In-vivo radioactivity distribution: lung ([2]; 60 min): 1.71 (0.29) percent of the dose/g
In-vivo radioactivity distribution: pancreas ([2]; 60 min): 0.84 (0.22) percent of the dose/g
In-vivo radioactivity distribution: spleen ([2]; 60 min): 0.89 (0.12) percent of the dose/g
In-vivo radioactivity distribution: stomach ([2]; 60 min): 2.17 (1.24) percent of the dose

Compound: CNc1ccc(C=CC(=O)c2ccc(I)s2)cc1 [Compound 13 in Example 2, 1-(5-iodo-2-thienyl)-3-(4-methylaminophenyl)-prop-2-en-1-one]
Ki (Aβ(1-42) aggregate): 14.1 ± 0.6 nM
stability in the organism ([2]; in words: radioactivity accumulation in the stomach, retention in blood, deiodination): instability in the organism
In-vivo radioactivity distribution: blood ([2]; 2 min): 3.00 (0.83) percent of the dose/g
In-vivo radioactivity distribution: brain ([2]; 2 min): 2.56 (0.44) percent of the dose/g
In-vivo radioactivity distribution: heart ([2]; 2 min): 3.55 (0.57) percent of the dose/g
In-vivo radioactivity distribution: intestine ([2]; 2 min): 1.60 (0.32) percent of the dose/g
In-vivo radioactivity distribution: kidney ([2]; 2 min): 4.50 (1.00) percent of the dose/g
In-vivo radioactivity distribution: liver ([2]; 2 min): 8.41 (1.24) percent of the dose/g
In-vivo radioactivity distribution: lung ([2]; 2 min): 5.61 (1.33) percent of the dose/g
In-vivo radioactivity distribution: pancreas ([2]; 2 min): 3.73 (0.67) percent of the dose/g
In-vivo radioactivity distribution: spleen ([2]; 2 min): 2.06 (0.49) percent of the dose/g
In-vivo radioactivity distribution: stomach ([2]; 2 min): 1.48 (0.39) percent of the dose
In-vivo radioactivity distribution: blood ([2]; 10 min): 3.68 (0.70) percent of the dose/g
In-vivo radioactivity distribution: brain ([2]; 10 min): 1.13 (0.16) percent of the dose/g
In-vivo radioactivity distribution: heart ([2]; 10 min): 2.48 (0.36) percent of the dose/g
In-vivo radioactivity distribution: intestine ([2]; 10 min): 3.86 (0.20) percent of the dose/g
In-vivo radioactivity distribution: kidney ([2]; 10 min): 6.59 (1.34) percent of the dose/g
In-vivo radioactivity distribution: liver ([2]; 10 min): 13.29 (1.65) percent of the dose/g
In-vivo radioactivity distribution: lung ([2]; 10 min): 6.33 (1.42) percent of the dose/g
In-vivo radioactivity distribution: pancreas ([2]; 10 min): 2.53 (0.72) percent of the dose/g
In-vivo radioactivity distribution: spleen ([2]; 10 min): 4.00 (1.55) percent of the dose/g
In-vivo radioactivity distribution: stomach ([2]; 10 min): 5.13 (1.67) percent of the dose
In-vivo radioactivity distribution: blood ([2]; 30 min): 2.29 (0.32) percent of the dose/g
In-vivo radioactivity distribution: brain ([2]; 30 min): 0.28 (0.06) percent of the dose/g
In-vivo radioactivity distribution: heart ([2]; 30 min): 1.45 (0.17) percent of the dose/g
In-vivo radioactivity distribution: intestine ([2]; 30 min): 4.36 (1.49) percent of the dose/g
In-vivo radioactivity distribution: kidney ([2]; 30 min): 3.16 (0.80) percent of the dose/g
In-vivo radioactivity distribution: liver ([2]; 30 min): 5.10 (1.12) percent of the dose/g
In-vivo radioactivity distribution: lung ([2]; 30 min): 3.17 (0.52) percent of the dose/g
In-vivo radioactivity distribution: pancreas ([2]; 30 min): 1.48 (0.34) percent of the dose/g
In-vivo radioactivity distribution: spleen ([2]; 30 min): 2.06 (0.28) percent of the dose/g
In-vivo radioactivity distribution: stomach ([2]; 30 min): 9.94 (1.69) percent of the dose
In-vivo radioactivity distribution: blood ([2]; 60 min): 2.89 (0.49) percent of the dose/g
In-vivo radioactivity distribution: brain ([2]; 60 min): 0.15 (0.03) percent of the dose/g
In-vivo radioactivity distribution: heart ([2]; 60 min): 1.43 (0.29) percent of the dose/g
In-vivo radioactivity distribution: intestine ([2]; 60 min): 6.26 (1.78) percent of the dose/g
In-vivo radioactivity distribution: kidney ([2]; 60 min): 2.52 (0.48) percent of the dose/g
In-vivo radioactivity distribution: liver ([2]; 60 min): 4.32 (0.75) percent of the dose/g
In-vivo radioactivity distribution: lung ([2]; 60 min): 3.11 (0.66) percent of the dose/g
In-vivo radioactivity distribution: pancreas ([2]; 60 min): 1.76 (0.40) percent of the dose/g
In-vivo radioactivity distribution: spleen ([2]; 60 min): 2.52 (0.36) percent of the dose/g
In-vivo radioactivity distribution: stomach ([2]; 60 min): 14.32 (1.81) percent of the dose

Compound: COc1ccc(/C=C/C(=O)c2ccc(I)cc2)cc1OC [Compound 42 in Example 2, 3,4-dimethoxy-4′-iodochalcone]
binding affinity for the Aβ(1-42) aggregate (Aβ(1-42) aggregate; in words, derivatives with two substituents on Ring A): no compound showed a high binding affinity
Ki (Aβ(1-42) aggregate): 223 ± 76.1 nM

More lines, now with the values ahead:

Ki (Aβ(1-42) aggregate): 476 ± 47.9 nM
Compound: Nc1ccc(C(=O)C=Cc2ccc(Br)s2)cc1 [Compound 44 in Example 2, 3-(5-bromo-2-thienyl)-1-(4-aminophenyl)-prop-2-en-1-one]

Ki (Aβ(1-42) aggregate): 198 ± 48.6 nM
Compound: CNc1ccc(C(=O)C=Cc2ccc(Br)s2)cc1 [Compound 45 in Example 2, 3-(5-bromo-2-thienyl)-1-(4-methylaminophenyl)-prop-2-en-1-one]

Ki (Aβ(1-42) aggregate): 106 ± 7.1 nM
Compound: CN(C)c1ccc(C(=O)C=Cc2ccc(Br)s2)cc1 [Compound 46 in Example 2, 3-(5-bromo-2-thienyl)-1-(4-dimethylaminophenyl)-prop-2-en-1-one]
